Data published in patent US4795751A, “5-substituted-6,8-difluoroquinolines useful as antibacterial agents” (Dainippon Pharmaceutical Co., Ltd., priority 1985, dated 1989).
≈ marks a conversion by molar mass, not a printed value.

Tests used:
Campylobacter jejuni 77 = assay: Antibacterial activity against Campylobacter jejuni, twofold agar-dilution method; assay type: cell-based; conditions: strain 77, blood-containing Mueller-Hinton agar, 48 h, 37° C. microaerobically, calculated for free base, read-out: minimum inhibitory concentration (MIC)
Method: (§1) The numbers in the table show minimum inhibitory concentrations (MIC) (μg/ml), calculated for free base. The minimum inhibitory concentration was determined by the twofold agar-dilution method using blood-containing Mueller-Hinton agar. One loopful of a culture of test organisms in Mueller-Hinton broth was inoculated onto 10-ml drug-containing agar layer in petri dishes. Bacterial growth was observed after 48-hour incubation at 37° C. microaerobically. The MIC was defined as the lowest drug concentration which prevented visible bacterial growth.

Campylobacter jejuni 20 = assay: as above; assay type: cell-based; conditions: strain 20, blood-containing Mueller-Hinton agar, 48 h, 37° C. microaerobically, calculated for free base, read-out: minimum inhibitory concentration (MIC)
Method: as §1

[1] = test system: Campylobacter jejuni 19805; assay: as above; assay type: cell-based; conditions: strain 19805, blood-containing Mueller-Hinton agar, 48 h, 37° C. microaerobically, calculated for free base, read-out: minimum inhibitory concentration (MIC)
Method: as §1

Campylobacter jejuni 170 = assay: as above; assay type: cell-based; conditions: strain 170, blood-containing Mueller-Hinton agar, 48 h, 37° C. microaerobically, calculated for free base, read-out: minimum inhibitory concentration (MIC)
Method: as §1

[2] = test system: Campylobacter jejuni A-24-2; assay: as above; assay type: cell-based; conditions: A242, strain A-24-2, blood-containing Mueller-Hinton agar, 48 h, 37° C. microaerobically, calculated for free base, read-out: minimum inhibitory concentration (MIC)
Method: as §1

Campylobacter jejuni 12 = assay: as above; assay type: cell-based; conditions: strain 12, blood-containing Mueller-Hinton agar, 48 h, 37° C. microaerobically, calculated for free base, read-out: minimum inhibitory concentration (MIC)
Method: as §1

M. arginini G-230 = assay: Anti-Mycoplasma activity, twofold agar-dilution method; assay type: cell-based; conditions: Mycoplasmopsis arginini, G230, 48 h, Chanock agar, 37° C., 2 days aerobically, calculated for free base, read-out: minimum inhibitory concentration (MIC)
Method: (§2) The numbers in the table show minimum inhibitory concentrations (MIC) (μg/ml), calculated for free base. The minimum inhibitory concentration was determined by the twofold agar-dilution method using Chanock agar. Three μl of a culture of test organisms in Chanock broth was inoculated onto 10-ml drug-containing agar layers in petri dishes. Growth of Mycoplasma was observed after incubation at 37° C. under the conditions shown hereinbelow. The MIC was defined as the lowest drug concentration which prevented growth of Mycoplasma microscopically.
(§3) Mycoplasma arginini and Acholeplasma laidlawii

A. laidlawii PG-8 = assay: as above; assay type: cell-based; conditions: Acholeplasma laidlawii, PG8, 48 h, Chanock agar, 37° C., 2 days aerobically, calculated for free base, read-out: minimum inhibitory concentration (MIC)
Method: as §2, §3

M. bovis P-7101 = assay: microbe, parasite or virus in culture; assay type: cell-based; conditions: Mycobacterium tuberculosis variant bovis, P7101, 20 h, read-out: minimum inhibitory concentration (MIC)
[3] = test system: Streptococcus pyogenes A65; assay: In vivo efficacy against systemic infections in mice; set-up: species or system Streptococcus pyogenes; male mice (ddY-S); conditions: A65, 168 h, oral, intraperitoneal infection 3×10^7 cells, twice, immediately and 6 h after infection, 7 days, calculated for free base, read-out: median effective dose (ED50)
Method: (§4) Compounds were each dissolved in deionized water. Each of the solutions was orally administered to mice infected with each of the test organisms under the conditions shown hereinbelow, and the median effective dose (ED50) was calculated by probit analysis. The numerals in the table show ED50 (mg/kg) value, calculated for free base.
(§5) Mice: Male mice (ddY-S) weighing about 20 g
Streptococcus pyogenes A65
Intraperitoneal infection with 3×10^7 cells per mouse suspended in brain heart infusion broth.
(§6) Four times, immediately, 6, 24 and 30 hours after infection in case of Streptococcus pneumoniae 1 Neufeld. Twice, immediately and 6 hours after infection in case of other organisms.
(§7) For 14 days in case of Staphylococcus aureus 50774 and Streptocuccus pneumoniae 1 Neufeld. For 7 days in case of other organisms.

[4] = test system: Streptococcus pneumoniae 1 Neufeld; assay: as above; set-up: species or system Streptococcus pneumoniae; male mice (ddY-S); conditions: 336 h, oral, intraperitoneal infection 3×10^3 cells, four times, immediately, 6, 24 and 30 h after infection, 14 days, calculated for free base, read-out: median effective dose (ED50)
Method: as §4, §5
Streptococcus pneumoniae 1 Neufeld
Intraperitoneal infection with 3×10^3 cells per mouse suspended in brain heart infusion broth.
as §6, §7

[5] = Acute oral toxicity in mice; conditions: mouse, in vivo, po
Method: (§8) A solution containing each of compounds 1, 2 and 3 of this invention in various concentrations was orally given to male mice (ddY) at a dose of 0.1 ml per 10 g of body weight. The number of dead mice was counted after 7 days, and the value of median lethal dose (LD50, mg/kg) was calculated in accordance with the Behrens-Kaerber method.

male mice (ddY) = assay: Acute oral toxicity in mice; conditions: conclusion in words from Table 5
Method: as §8

M. hominis PG-21 = assay: Anti-Mycoplasma activity, twofold agar-dilution method; assay type: cell-based; conditions: Metamycoplasma hominis, PG21, 48 h, Chanock agar, 37° C., 2 days anaerobically, calculated for free base, read-out: minimum inhibitory concentration (MIC)
Method: as §2

M. salivarium = assay: as above; assay type: cell-based; conditions: 48 h, read-out: minimum inhibitory concentration (MIC)
Method: as §2

M. hyorhinis BST-7 = assay: as above; assay type: cell-based; conditions: Mesomycoplasma hyorhinis, BST7, 72 h, Chanock agar, 37° C., 3 days aerobically, calculated for free base, read-out: minimum inhibitory concentration (MIC)
Method: as §2

M. fermentans PG-18 = assay: as above; assay type: cell-based; conditions: Mycoplasmopsis fermentans, PG18, 48 h, Chanock agar, 37° C., 2 days anaerobically, calculated for free base, read-out: minimum inhibitory concentration (MIC)
Method: as §2

M. buccale CH-20247 = assay: as above; assay type: cell-based; conditions: 48 h, Chanock agar, 37° C., 2 days anaerobically, calculated for free base, read-out: minimum inhibitory concentration (MIC)
Method: as §2

M. orale CH-19299 = assay: as above; assay type: cell-based; conditions: 48 h, Chanock agar, 37° C., 2 days anaerobically, calculated for free base, read-out: minimum inhibitory concentration (MIC)
Method: as §2

M. pneumoniae Mac = assay: as above; assay type: cell-based; conditions: Mycoplasmoides pneumoniae, 168 h, Chanock agar, 37° C., 7 days aerobically, calculated for free base, read-out: minimum inhibitory concentration (MIC)
Method: as §2

## CC1CN(c2c(F)c(N)c3c(=O)c(C(=O)O)cn(C4CC4)c3c2F)CCN1 (centres unmarked) [Compound 1, 5-Amino-1-cyclopropyl-6,8-difluoro-7-(3-methyl-1-piperazinyl)-1,4-dihydro-4-oxoquinoline-3-carboxylic acid]
Campylobacter jejuni 77
  MIC: 0.0125 µg/mL (≈ 0.033 µM)
Campylobacter jejuni 20
  MIC: 0.0063 µg/mL (≈ 0.0166 µM)
[1]
  MIC: 0.0125 µg/mL (≈ 0.033 µM)
Campylobacter jejuni 170
  MIC: 0.0125 µg/mL (≈ 0.033 µM)
[2]
  MIC: 0.05 µg/mL (≈ 0.132 µM)
Campylobacter jejuni 12
  MIC: 0.0125 µg/mL (≈ 0.033 µM)
M. arginini G-230
  MIC: 0.1 µg/mL (≈ 0.264 µM)
A. laidlawii PG-8
  MIC: 0.1 µg/mL (≈ 0.264 µM)
M. bovis P-7101
  MIC: 0.2 µg/mL (≈ 0.529 µM)
[3]
  ED50: 5.26 mg/kg
[4]
  ED50: 10.9 mg/kg
[5]
  LD50 at 168 h: > 2000 mg/kg
Male mice (ddY)
  oral toxicity: low oral toxicity
M. hominis PG-21
  MIC: 0.05 µg/mL (≈ 0.132 µM)
M. salivarium
  MIC: 0.2 µg/mL (≈ 0.529 µM)
M. hyorhinis BST-7
  MIC: 0.2 µg/mL (≈ 0.529 µM)
M. fermentans PG-18
  MIC: 0.0063 µg/mL (≈ 0.0166 µM)
M. buccale CH-20247
  MIC: 0.0125 µg/mL (≈ 0.033 µM)
M. orale CH-19299
  MIC: 0.2 µg/mL (≈ 0.529 µM)
M. pneumoniae Mac
  MIC: 0.025 µg/mL (≈ 0.0661 µM)
